Data published in patent US12692264B2, “Pyrimidine or pyridine derivative, preparation method therefor, and application thereof in pharmacy” (ABBISKO THERAPEUTICS CO., LTD., priority 2021, dated 2026).

Key:
Assay type in all cases: cell-based
[1] = molecular target: Ba/F3 EGFR-D770-N771ins_SVD (Homo sapiens, UniProt P00533, DUP768-770, cells depend on it); assay: Cell proliferation study (CellTiter-Glo, 72 hrs), Ba/F3 EGFR-D770-N771ins_SVD; conditions: CTG, * = average of multiple measurements, read-out: Ba/F3 EGFR-D770-N771ins_SVD IC50
Description: (§1) (I) Reagents and Materials
(§2) • Fetal bovine serum FBS (GBICO, Cat #10099-141); • CellTiter-Glo® luminescent cell viability assay kit (Promega, Cat #G7572); • Black transparent flat-bottom 96-well plate (Corning®, Cat #3603). (II) Instruments • SpectraMax multi-label microplate reader MD, 2104-0010A; • Carbon dioxide incubator, Thermo Scientific 3100 series; • Biological safety cabinet, Thermo Scientific, 1300 series model A2; • Inverted microscope, Olympus, CKX41SF; • Siemens refrigerator KK25E76T1. (III) Cell Lines and Culture Conditions
(§3) (IV) Experimental Procedures 1. Cell Culture and Inoculation: • (1) Cells in the logarithmic growth phase were harvested and counted using a […]. The cell viability was determined by the trypan blue dye exclusion method to ensure cell viability above 90%. • (2) The cell concentration was adjusted to reach a desired final density; 90 μL of cell suspension was added to a 96-well plate. • (3) The cells were incubated overnight in the 96-well plate at 37° C., 5% CO2 and with 95% humidity. 2. T0 Benchmark Data: • (1) 10 μL of PBS was added to each well of the TO plate containing the cells. • (2) The CTG reagent was thawed and the cell plate was equilibrated to room temperature for 30 min. • (3) An equal volume of CTG solution was added to each well. • (4) The cells were lysed by shaking on an orbital shaker for 5 min. • (5) The cell plate was left to stand at room temperature for 20 min to stabilize the fluorescence signal. • (6) The fluorescence signal values of TO were read. 3. Dilution and Addition of Compounds • (1) According to the compound information table, a corresponding volume of DMSO was added to the corresponding compound powder to prepare a 10 mM stock solution. • (2) A 1000-fold, 3.16-fold-diluted compound solution was prepared. • (3) The 1000× diluted compound solution was diluted 100-fold with PBS to prepare a 10-fold compound solution with a maximum concentration of 10 μM, including 9 concentrations, with 3.16-fold dilution, and 10 μL of the medicament solution was added to each well of the 96-well plate to seed the cells. Triplicate wells were set for each compound concentration, with a final concentration of DMSO being 0.1%. • (4) The cells were placed in the 96-well plate containing the medicament at 37° C., 5% CO2 and with 95% humidity, and cultured for 72 hrs before CTG analysis. 4. Fluorescence Signal Reading • (1) The CTG reagent was thawed and the cell plate was equilibrated to room temperature for 30 min. • (2) An equal volume of CTG solution was added to each well. • (3) The cells were lysed by shaking on an orbital shaker for 5 min. • (4) The cell plate was left to stand at room temperature for 20 min to stabilize the fluorescence signal. • (5) The fluorescence values were read. 5. Data Processing
(§4) Data were analyzed using GraphPad Prism 7.0 software and fitted data were regressed using non-linear S-curves to obtain dose-response curves from which IC50 values (in nM) were calculated.

A431 (EGFR-WT) = assay: Cell proliferation study (CellTiter-Glo, 72 hrs), A431; conditions: Homo sapiens, A-431, A431 cells, CTG, * = average of multiple measurements
Description: as §1, §2, §3, §4

[2] = molecular target: Ba/F3 EGFR-V769_D770insASV (Homo sapiens, UniProt P00533, DUP767-769, cells depend on it); assay: Cell proliferation study (CellTiter-Glo, 72 hrs), Ba/F3 EGFR-V769_D770insASV; conditions: CTG, * = average of multiple measurements, read-out: Ba/F3 EGFR-V769_D770insASV IC50
Description: as §1, §2, §3, §4

Sequence of Ba/F3 EGFR-V769_D770insASV (P00533 with tags, fused parts or gaps DUP767-769): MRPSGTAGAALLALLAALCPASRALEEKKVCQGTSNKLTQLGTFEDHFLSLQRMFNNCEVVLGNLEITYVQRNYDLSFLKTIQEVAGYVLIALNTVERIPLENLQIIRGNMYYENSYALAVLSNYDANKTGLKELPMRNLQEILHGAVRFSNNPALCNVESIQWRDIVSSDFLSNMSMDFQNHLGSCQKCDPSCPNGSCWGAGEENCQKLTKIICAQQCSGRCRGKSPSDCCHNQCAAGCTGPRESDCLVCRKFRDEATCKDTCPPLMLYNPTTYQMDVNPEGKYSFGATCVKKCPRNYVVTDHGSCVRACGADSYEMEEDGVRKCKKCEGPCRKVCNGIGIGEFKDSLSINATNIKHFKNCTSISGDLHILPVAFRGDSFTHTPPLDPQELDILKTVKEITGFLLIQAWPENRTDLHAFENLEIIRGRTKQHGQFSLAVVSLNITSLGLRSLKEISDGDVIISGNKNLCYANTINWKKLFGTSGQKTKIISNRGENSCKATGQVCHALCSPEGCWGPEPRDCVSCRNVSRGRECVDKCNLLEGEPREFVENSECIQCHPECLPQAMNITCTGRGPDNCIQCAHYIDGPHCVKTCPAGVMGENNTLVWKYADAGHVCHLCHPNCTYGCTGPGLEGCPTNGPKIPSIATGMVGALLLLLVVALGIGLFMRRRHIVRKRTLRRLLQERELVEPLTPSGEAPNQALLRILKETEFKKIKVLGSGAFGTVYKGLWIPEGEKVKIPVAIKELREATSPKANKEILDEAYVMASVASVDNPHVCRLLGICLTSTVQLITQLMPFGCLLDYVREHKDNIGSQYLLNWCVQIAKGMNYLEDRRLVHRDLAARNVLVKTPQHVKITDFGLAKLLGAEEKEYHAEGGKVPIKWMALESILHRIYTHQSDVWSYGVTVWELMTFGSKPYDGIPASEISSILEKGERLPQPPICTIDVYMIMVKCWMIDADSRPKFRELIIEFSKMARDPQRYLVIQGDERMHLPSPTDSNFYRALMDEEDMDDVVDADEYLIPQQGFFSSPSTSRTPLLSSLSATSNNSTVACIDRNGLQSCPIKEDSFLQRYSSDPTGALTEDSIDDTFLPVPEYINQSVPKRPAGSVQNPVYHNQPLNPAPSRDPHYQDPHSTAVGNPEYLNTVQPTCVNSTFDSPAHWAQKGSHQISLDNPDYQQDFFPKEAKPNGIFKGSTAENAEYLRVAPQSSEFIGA
Sequence of Ba/F3 EGFR-D770-N771ins_SVD (P00533 with tags, fused parts or gaps DUP768-770): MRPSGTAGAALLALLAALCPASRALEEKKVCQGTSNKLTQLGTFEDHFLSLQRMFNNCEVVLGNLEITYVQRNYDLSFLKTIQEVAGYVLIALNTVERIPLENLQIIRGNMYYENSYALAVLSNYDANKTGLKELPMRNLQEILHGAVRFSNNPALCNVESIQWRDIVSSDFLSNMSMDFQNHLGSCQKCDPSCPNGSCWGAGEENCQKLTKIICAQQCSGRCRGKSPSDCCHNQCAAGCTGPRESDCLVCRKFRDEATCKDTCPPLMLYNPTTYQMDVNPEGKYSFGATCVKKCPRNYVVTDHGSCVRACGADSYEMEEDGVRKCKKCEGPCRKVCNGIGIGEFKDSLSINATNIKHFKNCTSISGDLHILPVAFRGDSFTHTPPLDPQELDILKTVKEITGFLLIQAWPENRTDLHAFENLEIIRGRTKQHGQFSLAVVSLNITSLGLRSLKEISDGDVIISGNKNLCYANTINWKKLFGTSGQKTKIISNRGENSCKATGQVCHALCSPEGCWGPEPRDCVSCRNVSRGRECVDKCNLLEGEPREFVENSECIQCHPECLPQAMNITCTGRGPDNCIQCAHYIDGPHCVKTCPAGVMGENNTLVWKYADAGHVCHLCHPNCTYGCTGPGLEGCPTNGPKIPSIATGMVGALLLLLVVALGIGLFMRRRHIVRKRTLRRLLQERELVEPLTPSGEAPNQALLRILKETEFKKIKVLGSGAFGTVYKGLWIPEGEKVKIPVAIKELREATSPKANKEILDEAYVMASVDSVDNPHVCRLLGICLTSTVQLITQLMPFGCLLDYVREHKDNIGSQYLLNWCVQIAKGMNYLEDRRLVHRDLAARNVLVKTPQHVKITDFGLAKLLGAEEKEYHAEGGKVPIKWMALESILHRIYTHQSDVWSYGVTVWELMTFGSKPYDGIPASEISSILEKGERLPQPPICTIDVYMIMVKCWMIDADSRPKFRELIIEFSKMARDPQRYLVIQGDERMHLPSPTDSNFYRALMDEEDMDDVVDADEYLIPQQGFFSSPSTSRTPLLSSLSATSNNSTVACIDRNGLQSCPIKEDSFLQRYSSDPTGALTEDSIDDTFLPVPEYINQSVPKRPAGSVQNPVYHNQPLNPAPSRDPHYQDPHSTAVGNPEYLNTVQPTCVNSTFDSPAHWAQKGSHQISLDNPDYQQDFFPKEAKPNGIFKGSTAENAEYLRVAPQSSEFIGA

| SMILES | GI50 [1] [nM] | IC50 (A431 (EGFR-WT)) [nM] | GI50 [2] [nM] |
| --- | --- | --- | --- |
| C=CC(=O)Nc1cc(Nc2ncc(C(=O)OC(C)C)c(N3CC(C)(C)c4ncccc43)n2)c(OC)cc1N(C)CCN(C)C [Example 2, isopropyl 2-((5-acrylamido-4-((2-(dimethylami-no)ethyl)(methyl)amino)-2-methoxy-phenyl)amino)-4-(3,3-dimethyl-2,3-dihydro-1H-pyrrolo[3,2-b]pyridin-1-yl)pyrimidine-5-carboxylate] | 26.8 | 479 | 35 |
| C=CC(=O)Nc1cc(Nc2ncc(C(=O)OC(C)C)c(N3CC(C)(C)c4ncccc43)n2)c(OC(F)F)cc1N(C)CCN(C)C [Example 3, isopropyl 2-((5-acrylamido-2-(difluoromethoxy)-4-((2-(dimethylamino)ethyl)(methyl)ami-no)phenyl)amino)-4-(3,3-dimethyl-2,3-dibydro-1H-pyrrolo[3,2-b]pyridin-1-yl)pyrimidine-5-carboxylate] | 23.2 | 371 | 33.1 |
| C=CC(=O)Nc1cc(Nc2ncc(C(=O)OC(C)C)c(N3CC4(CCC4)c4nc(C)ccc43)n2)c(OC)cc1N(C)CCN(C)C [Example 5, isopropyl 2-((5-acrylamido-4-((2-(dimethylami-no)ethyl)(methyl)amino)-2-methoxy-phenyl)amino)-4-(5′-methylspiro(cyclo-butane-1,3′-pyrrolo[3,2-b]pyridin)-1′(2′H)-yl)pyrimidine-5-carboxylate] | 15.8 | 516 | 30.4 |
| C=CC(=O)Nc1cc(Nc2ncc(C(=O)OC(C)C)c(N3CC4(CCC4)c4ncccc43)n2)c(OC(F)F)cc1N(C)CCN(C)C [Example 6, isopropyl 2-((5-acrylamido-2-(difluoromethoxy)-4-((2-(dimethylamino)ethyl)(methyl)ami-no)phenyl)amino)-4-(spiro(cyclo-butane-1,3′-pyrrolo[3,2-b]pyridin)-1′(2′H)-yl)pyrimidine-5-carboxylate] | 12.4 | 627 | 35.1 |
| C=CC(=O)Nc1cc(Nc2ncc(C(=O)OC(C)C)c(N3CC4(CCC4)c4ncccc43)n2)c(OC)cc1N(C)CCN(C)C [Example 7, isopropyl 2-((5-acrylamido-4-((2-(dimethylami-no)ethyl)(methyl)amino)-2-methoxy-phenyl)amino)-4-(spiro(cyclobutane-1,3′-pyrrolo[3,2-b]pyridin)-1′(2′H)-yl)pyrimidine-5-carboxylate] | 18.8 | 735 | 29.9 |
| C=CC(=O)Nc1cc(Nc2ncc(C(=O)OC(C)C)c(N3CC(C)(C)c4nc(-c5cnn(C)c5)ccc43)n2)c(OC)cc1N(C)CCN(C)C [Example 8, isopropyl 2-((5-acrylamido-4-((2-(dimethylami-no)ethyl)(methyl)amino)-2-methoxy-phenyl)amino)-4-(3,3-dimethyl-5-(1-methyl-1H-pyrazol-4-yl)-2,3-dihydro-1H-pyrrolo[3,2-b]pyridin-1-yl)pyrimidine-5-carboxylate] | 11 | 102 | 18.7 |
| C#Cc1ccc2c(n1)C(C)(C)CN2c1nc(Nc2cc(NC(=O)C=C)c(N(C)CCN(C)C)cc2OC)ncc1C(=O)OC(C)C [Example 9, isopropyl 2-((5-acrylamido-4-((2-(dimethylamino)ethyl)(methyl)amino)-2-methoxyphenyl)amino)-4-(5-ethynyl-3,3-dimethyl-2,3-dihydro-1H-pyrrolo[3,2-b]pyridin-1-yl)pyrimidine-5-carboxylate] | 17.8 | 23.3 | 31.8 |
| C=CC(=O)Nc1cc(Nc2ncc(C(=O)OC(C)C)c(N3CC4(CCC4)c4nc(-c5cnn(C)c5)ccc43)n2)c(OC)cc1N(C)CCN(C)C [Example 10, isopropyl 2-((5-acrylamido-4-((2-(dimethylami-no)ethyl)(methyl)amino)-2-methoxy-phenyl)amino)-4-(5′-(1-methyl-1H-pyrazol-4-yl)spiro(cyclobutane-1,3′-pyrrolo[3,2-b]pyridin)-1′(2′H)-yl)pyrimidine-5-carboxylate] | 36.9 | 278 | 39.4 |
| C=CC(=O)Nc1cc(Nc2ncc(C(=O)OC(C)C)c(N3CC(C)(C)c4nc(F)ccc43)n2)c(OC)cc1N(C)CCN(C)C [Example 11, isopropyl 2-((5-acrylamido-4-((2-(dimethylami-no)ethyl)(methyl)amino)-2-methoxy-phenyl)amino)-4-(5-fluoro-3,3-dimethyl-2,3-dihydro-1H-pyrrolo[3,2-b]pyridin-1-yl)pyrimidine-5-carboxylate] | 30.2 | 828 | 37.3 |
| C=CC(=O)Nc1cc(Nc2ncc(C(=O)OC(C)C)c(N3CC(C)(C)c4nc(C)ccc43)n2)c(OC)cc1N1CC[C@@H](N(C)C)C1 [Example 12, isopropyl (R)-2-((5-acrylamido-4-(3-(dimethyl-amino)pyrrolidin-1-yl)-2-methoxy-phenyl)amino)-4-(3,3,5-trimethyl-2,3-dihydro-1H-pyrrolo[3,2-b]pyridin-1-yl)pyrimidine-5-carboxylate] | 18.5 | 599 | 36.9 |
| C=CC(=O)Nc1cc(Nc2ncc(C(=O)OC(C)C)c(N3CC(C)(C)c4nc(C)ccc43)n2)c(OC)cc1N(C)CCNC [Example 15, isopropyl 2-((5-acrylamido-2-methoxy-4-(methyl (2-(methylamino)ethyl)amino)phenyl)amino)-4-(3,3,5-trimethyl-2,3-dihydro-1H-pyrrolo[3,2-b]pyridin-1-yl)pyrimidine-5-carboxylate] | 35 | 879 | 49.2 |
| C=CC(=O)Nc1cc(Nc2ncc(C(=O)OC(C)C)c(N3CC(C)(C)c4nc(C=C)ccc43)n2)c(OC)cc1N(C)CCN(C)C [Example 20, isopropyl 2-((5-acrylamido-4-((2-(dimethylami-no)ethyl)(methyl)amino)-2-methoxy-phenyl)amino)-4-(3,3-dimethyl-5-vinyl-2,3-dihydro-1H-pyrrolo[3,2-b]pyridin-1-yl)pyrimidine-5-carboxylate] | 34.3 | 746 | 66.6 |
| C=CC(=O)Nc1cc(Nc2ncc(C(=O)OC(C)C)c(N3CC4(CC4)c4ncccc43)n2)c(OC)cc1N(C)CCN(C)C [Example 21, isopropyl 2-((5-acrylamido-4-((2-(dimethylami-no)ethyl)(methyl)amino)-2-methoxy-phenyl)amino)-4-(spiro(cyclopropane-1,3′-pyrrolo[3,2-b]pyridin)-1′(2′H)-yl)pyrimidine-5-carboxylate] | 24.6 | 404 | 56.8 |
| C=CC(=O)Nc1cc(Nc2ncc(C(=O)OC(C)C)c(N3CC4(CC4)c4nc(C)ccc43)n2)c(OC)cc1N(C)CCN(C)C [Example 22, isopropyl 2-((5-acrylamido-4-((2-(dimethylami-no)ethyl)(methyl)amino)-2-methoxy-phenyl)amino)-4-(5′-methylspiro(cyclo-propane-1,3′-pyrrolo[3,2-b]pyridin)-1′(2′H)-yl)pyrimidine-5-carboxylate] | 20.6 | 127 | 48.8 |
